Here are results for six molecules from patent US11771715B2 (Orna Therapeutics, Inc., priority 2019, dated 2023).

As a reminder, the pKa is the pH at which an ionisable group is half protonated.

The test system of data set [1] is 1C1C7 cells. Put plainly: 5′ UTR variants in 1C1C7 cells (Ex. 54). It counts as cell-based. As to conditions: CK IRES with 5′ UTR variants. An excerpt:
This example describes modifications of circular RNAs by inserting 5′ UTR variants. […] 1C1C7 cells were transfected with the circular RNAs.

The conditions of data set [2]: Table 3, representative compounds of Formula (III); cited from earlier work.
The test system of data set [3] is HEK293 cells. Put plainly: GLuc luminescence by IRES in HEK293 cells (Ex. 8A). The note with it: 24 hours, 100 ng circularization reaction.
Data set [4] relates to 1C1C7 cells. Put plainly: Expression of anti-murine CD19 CAR by IRES variant in lipotransfected 1C1C7 cells (Ex. 41). In kind it is cell-based. As to conditions: 24 hours after lipotransfection. The method, then: After 24 hours, 1C1C7 cells were incubated with His-tagged recombinant murine CD19 (Sino Biological) protein, then stained with a secondary anti-His antibody. Afterwards, the cells were analyzed via flow cytometry.

Data set [5] deals with 1C1C7 cells. Put plainly: GLuc luminescence and functional stability by IRES in 1C1C7 cells (Ex. 8A). As to conditions: 24 hours.

“UTR3: 5′ UTR variant: "a higher-GC/structured spacer with a kozak sequence" (DNA CGAACTAGTATTCTTCTGGTCCCCACAGACTCAGAGAGAACCCGCCACC; expressed or natural sequence)”: in data set [1], the “translation, luminescence” value was “did not show the same benefit”.
On the same count and under the same terms, the value for “UTR2: 5′ UTR variant: canonical Kozak with "a 36-nucleotide unstructured/low GC spacer sequence" added (DNA AATAAGAGAGAAAAGAAGAGTAAGAAGAAATATAAGAGCCACC; expressed or natural sequence)” was “more effective”.
In the case of `CCCCCCCCCCCCC(CCCCCCCCCC)C(=O)OCCCCCCN(CCCCO)CCCCOC(=O)C(CCCCCCCCCC)CCCCCCCCCCCC` (stereo not drawn) [III-27], the pKa in data set [2] is given as 5.77.

B1: Crohivirus B IRES: one of the "selected IRES sequences" modified (e.g., truncated); "SEQ ID NOs: 348-389" (nucleic acid)
DNA: GTATAAGAGACAGGTGTTTGCCTTGTCTTCGGACTGGCATCTTGGGACCAACCCCCCTTTTCCCCAGCCATGGGTTAAATGGCAATAAAGGACGTAACAACTTTGTAACCATTAAGCTTTGTAATTTTGTAACCACTAAGCTTTGTGCACATAATGTAACCATCAAGCTTGTTAGTCCCAGCAGGAGGTTTGCATGCTTGTAGCCGAAATGGGGCTCGACCCCCCATAGTAGGATACTTGATTTTGCATTCCATTGTGGACCTGCAAACTCTACACATAGAGGCTTTGTCTTGCATCTAAACACCTGAGTACAGTGTGTACCTAGACCCTATAGTACGGGAGGACCGTTTGTTTCCTCAATAACCCTACATAATAGGCTAGGTGGGCATGCCCAATTTGCAAGATCCCAGACTGGGGGTCGGTCTGGGCAGGGTTAGATCCCTGTTAGCTACTGCCTGATAGGGTGGTGCTCAACCATGTGTAGTTTAAATTGAGCTGTTCATATACC
modifications: Crohivirus B
Consider B1, for which, in data set [3], the luminescence in supernatant result was “produced the highest luminescence”.

B2: parabovirus: "IRES sourced from the indicated virus" in circular RNA encoding anti-murine CD19 CAR (nucleic acid, listed as Parabovirus sp.)
DNA: TGAACCGTTACGCACCACTCAGTTGGTGTTTGGTGGCACCAATGATGGAACAAAAGGCTACACCACTTGGGCTACGGCCCGCGCCACCTTGTGGCGCAAAGACATTAGAAGAATAGCATACCGCCCACTAGGGCCCTGCAGCCAGCAGGGTAACGGGCAAGCACTTCTGTCTCCCCGGTAGAACGGTATAGGCTGTACCCACGGCCGAAAACTGAACTATCGTTACCCGACTCCGTACTTCGCAAAGCTTAGTAGGAAACTGGAAAGTTCGAGTTATTGACCCGGAGTGTTCCCCCCACTCCAGAAACGCGTGATGAGGGTTGCCACCCCGACCATGGCGACATGGTGGGCATCCCTGCGCTGGCACGCGGCCTCTAAGAGGATAACTCGCTCCTACTGGTAACCGAAGAGCCCCGTGAGCTACGGTTTATTCCTCCGCCTCCCTGAATGCGGCTAATCCTAACCCATGAGCAGTTGCCATAGATCCATATGGTGGACTGTCGTAACGCGTAAGTTGTGGGCGGAACCGACTACTTTGGGATGGCGTGTTTCCTTGTTTTCTCCATTTGTTGTTGTATGGTGACAAGTTATAGATCTCGATCTATAGCGTTTCTTGAGAGATTTCCAAACATTTATTCAAGTCGTACAATTCTTGTGTTTAAGCAGTACAGTGTAAGG
For B2, the “expression of anti-mouse CD19 CAR” value in data set [4] is “capable of driving expression”.

B3: Salivirus A SZ-1 (nucleic acid)
DNA: TCTGTCCTCACCCCATCTTCCCTTCTTTCCTGCACCGTTACGCTTACTCGCATGTGCATTGAGTGGTGCACGTGCTTGAACAAACAGCTACACTCACATGGGGGCGGGTTTTCCCGCCCTGCGGCCTCTCGCGAGGCCCACCCCTCCCCTTCCTCCCATAACTACAGTGCTTTGGTAGGTAAGCATCCTGATCCCCCGCGGAAGCTGCTCACGTGGCAACTGTGGGGACCCAGACAGGTTATCAAAGGCACCCGGTCTTTCCGCCTTCAGGAGTATCCCTGCTAGTGAATTCTAGTAGGGCTCTGCTTGGTGCCAACCTCCCCCAAATGCGCGCTGCGGGAGTGCTCTTCCCCAACTCACCCTAGTATCCTCTCATGTGTGTGCTTGGTCAGCATATCTGAGACGATGTTCCGCTGTCCCAGACCAGTCCAGTAATGGACGGGCCAGTGTGCGTAGTCGTCTTCCGGCTTGTCCGGCGCATGTTTGGTGAACCGGTGGGGTAAGGTTGGTGTGCCCAACGCCCGTACTTTGGTGATACCTCAAGACCACCCAGGAATGCCAGGGAGGTACCCCGCTTCACAGCGGGATCTGACCCTGGGCTAATTGTCTACGGTGGTTCTTCTTGCTTCCACTTCTTTCTACTGTTCATG
For the molecule B3, the luminescence in supernatant entry in data set [5] is “produced high luminescence”.
